How the values were obtained:
Test in all cases: cells
Assay type in all cases: functional, cell-based
Conditions in all cases: Homo sapiens
COLO-800 = test system: COLO-800;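 also: growth inhibition of COLO-800 cells, read out with a cell viability assay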
Description: SANGER: Inhibition of human COLO-800 cell growth in a cell viability assay.

CTB-1 = test system: CTB-1
Description: SANGER: Inhibition of human CTB-1 cell growth in a cell viability assay.

CTV-1 = test system: CTV-1;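 also: growth inhibition of the cell line, read out with a cell viability assay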
Description: SANGER: Inhibition of human CTV-1 cell growth in a cell viability assay.

DMS-114 = test system: DMS-114
DSH1 = test system: DSH1;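 also: growth inhibition of human DSH1 cells, measured with a cell viability readout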
Description: SANGER: Inhibition of human DSH1 cell growth in a cell viability assay.

EM-2 = test system: EM-2;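 also: growth inhibition of EM-2 cells, read out with a cell viability assay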
Description: SANGER: Inhibition of human EM-2 cell growth in a cell viability assay.

ES1 = test system: ES1;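 also: growth inhibition of ES1 cells, read out with a cell viability assay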
Description: SANGER: Inhibition of human ES1 cell growth in a cell viability assay.

EOL1 = test system: EOL1;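 also: growth inhibition of EoL-1 cells, read out by a cell viability assay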
Description: SANGER: Inhibition of human EoL-1-cell cell growth in a cell viability assay.

GB-1 = test system: GB-1;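 also: growth of GB-1 cells judged by a viability assay, IC50 marks the concentration inhibiting growth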
Description: SANGER: Inhibition of human GB-1 cell growth in a cell viability assay.

GR-ST = test system: GR-ST
Description: SANGER: Inhibition of human GR-ST cell growth in a cell viability assay.

HC-1 = test system: HC-1;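 also: growth inhibition of HC-1 cells measured by a cell viability assay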
Description: SANGER: Inhibition of human HC-1 cell growth in a cell viability assay.

HCC1187 = test system: HCC1187;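 also: growth inhibition of HCC1187 cells, read out with a cell viability assay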
Description: SANGER: Inhibition of human HCC1187 cell growth in a cell viability assay.

HCC2218 = test system: HCC2218;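 also: cell viability assay read-out, with IC50 given as the concentration that inhibits growth of the cell line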
Description: SANGER: Inhibition of human HCC2218 cell growth in a cell viability assay.

HD-MY-Z = test system: HD-MY-Z;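 also: growth inhibition of HD-MY-Z cells, read out with a cell viability assay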
Description: SANGER: Inhibition of human HD-MY-Z cell growth in a cell viability assay.

HDLM-2 = test system: HDLM-2;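 also: cell viability assay measuring suppression of HDLM-2 proliferation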
Description: SANGER: Inhibition of human HDLM-2 cell growth in a cell viability assay.

HOP-62 = test system: HOP-62;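 also: cell growth inhibition determined with a viability assay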
Description: SANGER: Inhibition of human HOP-62 cell growth in a cell viability assay.

KGN = test system: KGN;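 also: growth inhibition of KGN cells, read out with a cell viability assay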
Description: SANGER: Inhibition of human KGN cell growth in a cell viability assay.

KINGS-1 = test system: KINGS-1;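 also: cell viability assay measuring suppression of KINGS-1 cell growth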
Description: SANGER: Inhibition of human KINGS-1 cell growth in a cell viability assay.

KNS-42 = test system: KNS-42;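 also: growth inhibition of KNS-42 cells, read out with a cell viability assay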
Description: SANGER: Inhibition of human KNS-42 cell growth in a cell viability assay.

KNS-81-FD = test system: KNS-81-FD;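 also: growth inhibition of KNS-81-FD cells, read out with a cell viability assay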
Description: SANGER: Inhibition of human KNS-81-FD cell growth in a cell viability assay.

KY821 = test system: KY821;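 also: growth inhibition of human KY821 cells, read out by a cell viability assay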
Description: SANGER: Inhibition of human KY821 cell growth in a cell viability assay.

L-428 = test system: L-428
Description: SANGER: Inhibition of human L-428 cell growth in a cell viability assay.

LAMA-84 = test system: LAMA-84;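 also: growth inhibition of LAMA-84 cells, read out with a cell viability assay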
Description: SANGER: Inhibition of human LAMA-84 cell growth in a cell viability assay.

LB1047-RCC = test system: LB1047-RCC;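 also: inhibition of cell growth, determined with a cell viability assay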
Description: SANGER: Inhibition of human LB1047-RCC cell growth in a cell viability assay.

LB2241-RCC = test system: LB2241-RCC;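 also: cell viability assay measuring how strongly the cultured human renal carcinoma line is prevented from growing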
Description: SANGER: Inhibition of human LB2241-RCC cell growth in a cell viability assay.

LS-1034 = test system: LS-1034
Description: SANGER: Inhibition of human LS-1034 cell growth in a cell viability assay.

MC116 = test system: MC116;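 also: growth inhibition of MC116 cells, read out with a cell viability assay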
Description: SANGER: Inhibition of human MC116 cell growth in a cell viability assay.

MFM-223 = test system: MFM-223
Description: SANGER: Inhibition of human MFM-223 cell growth in a cell viability assay.

MSTO-211H = test system: MSTO-211H
Description: SANGER: Inhibition of human MSTO-211H cell growth in a cell viability assay.

Mo = test system: Mo
Description: SANGER: Inhibition of human Mo-T cell growth in a cell viability assay.

NB10 = test system: NB10;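 also: growth inhibition of NB10 cells, read out by a cell viability assay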
Description: SANGER: Inhibition of human NB10 cell growth in a cell viability assay.

NB13 = test system: NB13;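 also: cell viability readout measuring growth inhibition of human NB13 cells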
Description: SANGER: Inhibition of human NB13 cell growth in a cell viability assay.

NCI-H1355 = test system: NCI-H1355;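 also: growth inhibition of human NCI-H1355 cells, read out by a cell viability assay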
Description: SANGER: Inhibition of human NCI-H1355 cell growth in a cell viability assay.

NCI-H1395 = test system: NCI-H1395;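 also: cell viability assay read-out quantifying reduced proliferation of human NCI-H1395 cells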
Description: SANGER: Inhibition of human NCI-H1395 cell growth in a cell viability assay.

NCI-H1650 = test system: NCI-H1650;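 also: growth inhibition of human NCI-H1650 cells measured by a cell viability assay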
Description: SANGER: Inhibition of human NCI-H1650 cell growth in a cell viability assay.

NCI-H226 = test system: NCI-H226;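 also: cell viability read-out used to gauge growth inhibition of the cells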
Description: SANGER: Inhibition of human NCI-H226 cell growth in a cell viability assay.

NCI-H69 = test system: NCI-H69;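 also: growth inhibition of the cell line, read out with a cell viability assay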
Description: SANGER: Inhibition of human NCI-H69 cell growth in a cell viability assay.

NCI-H720 = test system: NCI-H720;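 also: growth inhibition of human NCI-H720 cells determined by a cell viability assay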
Description: SANGER: Inhibition of human NCI-H720 cell growth in a cell viability assay.

NCI-H747 = test system: NCI-H747;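 also: growth inhibition of human NCI-H747 cells, read out by a cell viability assay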
Description: SANGER: Inhibition of human NCI-H747 cell growth in a cell viability assay.

NCI-H82 = test system: NCI-H82;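 also: growth inhibition of NCI-H82 cells, measured with a cell viability readout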
Description: SANGER: Inhibition of human NCI-H82 cell growth in a cell viability assay.

NEC8 = test system: NEC8;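 also: growth inhibition of human NEC8 cells, read out by a cell viability assay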
Description: SANGER: Inhibition of human NEC8 cell growth in a cell viability assay.

RH-1 = test system: RH-1;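 also: growth inhibition of human RH-1 cells, read out with a cell viability assay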
Description: SANGER: Inhibition of human RH-1 cell growth in a cell viability assay.

RKO = test system: RKO;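 also: growth inhibition of human RKO cells, read out with a cell viability assay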
Description: SANGER: Inhibition of human RKO cell growth in a cell viability assay.

SF-126 = test system: SF-126;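 also: growth inhibition of human SF126 cells, read out with a cell viability assay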
Description: SANGER: Inhibition of human SF126 cell growth in a cell viability assay.

SF-539 = test system: SF-539;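 also: Read-out is a cell viability assay, with IC50 reflecting inhibition of cell growth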
Description: SANGER: Inhibition of human SF539 cell growth in a cell viability assay.

SJSA-1 = test system: SJSA-1;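 also: growth inhibition of human SJSA-1 cells, read out through a cell viability measurement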
Description: SANGER: Inhibition of human SJSA-1 cell growth in a cell viability assay.

SK-LMS-1 = test system: SK-LMS-1;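 also: growth inhibition of human SK-LMS-1 cells, read out with a cell viability assay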
Description: SANGER: Inhibition of human SK-LMS-1 cell growth in a cell viability assay.

SK-N-DZ = test system: SK-N-DZ;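 also: growth inhibition of the cancer cell line, read out through a viability assay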
Description: SANGER: Inhibition of human SK-N-DZ cell growth in a cell viability assay.

SNB-75 = test system: SNB-75;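 also: cell viability assay measuring growth inhibition of human SNB-75 cells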
Description: SANGER: Inhibition of human SNB75 cell growth in a cell viability assay.

SNU-C2B = test system: SNU-C2B;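 also: cell viability readout used to measure compound-driven suppression of SNU-C2B cell proliferation, IC50 marking half-maximal growth inhibition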
Description: SANGER: Inhibition of human SNU-C2B cell growth in a cell viability assay.

A101D = test system: A101D;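 also: growth inhibition of the cell line, measured with a viability assay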
Description: SANGER: Inhibition of human A101D cell growth in a cell viability assay.

A388 = test system: A388;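 also: growth inhibition of human A388 cells, read out with a cell viability assay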
Description: SANGER: Inhibition of human A388 cell growth in a cell viability assay.

ALL-PO = test system: ALL-PO;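 also: growth inhibition of ALL-PO cells, read out by a cell viability assay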
Description: SANGER: Inhibition of human ALL-PO cell growth in a cell viability assay.

AM-38 = test system: AM-38;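 also: growth inhibition of AM-38 cells of human origin, read out by a cell viability assay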
Description: SANGER: Inhibition of human AM-38 cell growth in a cell viability assay.

BB30-HNC = test system: BB30-HNC;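 also: growth inhibition of the cultured cell line, read out by a cell viability assay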
Description: SANGER: Inhibition of human BB30-HNC cell growth in a cell viability assay.

Becker = test system: Becker;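 also: growth inhibition of Becker cells, read out with a cell viability assay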
Description: SANGER: Inhibition of human Becker cell growth in a cell viability assay.

TE-12 = test system: TE-12
Description: SANGER: Inhibition of human TE-12 cell growth in a cell viability assay.

TE-8 = test system: TE-8
Description: SANGER: Inhibition of human TE-8 cell growth in a cell viability assay.

TE-9 = test system: TE-9
Description: SANGER: Inhibition of human TE-9 cell growth in a cell viability assay.

TGBC1TKB = test system: TGBC1TKB
Description: SANGER: Inhibition of human TGBC1TKB cell growth in a cell viability assay.

TGBC24TKB = test system: TGBC24TKB
Description: SANGER: Inhibition of human TGBC24TKB cell growth in a cell viability assay.

U-266 = test system: U-266
Description: SANGER: Inhibition of human U-266 cell growth in a cell viability assay.

CAS-1 = test system: CAS-1
Description: SANGER: Inhibition of human CAS-1 cell growth in a cell viability assay.

CGTH-W-1 = test system: CGTH-W-1
Description: SANGER: Inhibition of human CGTH-W-1 cell growth in a cell viability assay.

COLO-320-HSR = test system: COLO-320-HSR
Description: SANGER: Inhibition of human COLO-320-HSR cell growth in a cell viability assay.

COLO-668 = test system: COLO-668
Description: SANGER: Inhibition of human COLO-668 cell growth in a cell viability assay.

Structure (SMILES): O=c1[nH]c2ccccc2n1C1CCN(Cc2ccc(-c3nc4cc5[nH]cnc5cc4nc3-c3ccccc3)cc2)CC1
- IC50 (COLO-800): > 2560 nM
- IC50 (CTB-1): > 2560 nM
- IC50 (CTV-1): > 2560 nM
- IC50 (DMS-114): > 2560 nM
- IC50 (DSH1): 987 nM
- IC50 (EM-2): > 2560 nM
- IC50 (ES1): > 2560 nM
- IC50 (EOL1): > 2560 nM
- IC50 (GB-1): > 2560 nM
- IC50 (GR-ST): > 2560 nM
- IC50 (HC-1): > 2560 nM
- IC50 (HCC1187): > 2560 nM
- IC50 (HCC2218): > 2560 nM
- IC50 (HD-MY-Z): > 2560 nM
- IC50 (HDLM-2): > 2560 nM
- IC50 (HOP-62): > 2560 nM
- IC50 (KGN): > 2560 nM
- IC50 (KINGS-1): > 2560 nM
- IC50 (KNS-42): > 2560 nM
- IC50 (KNS-81-FD): > 2560 nM
- IC50 (KY821): > 2560 nM
- IC50 (L-428): > 2560 nM
- IC50 (LAMA-84): > 2560 nM
- IC50 (LB1047-RCC): > 2560 nM
- IC50 (LB2241-RCC): > 2560 nM
- IC50 (LS-1034): > 2560 nM
- IC50 (MC116): > 2560 nM
- IC50 (MFM-223): > 2560 nM
- IC50 (MSTO-211H): > 2560 nM
- IC50 (Mo): > 2560 nM
- IC50 (NB10): > 2560 nM
- IC50 (NB13): > 2560 nM
- IC50 (NCI-H1355): > 2560 nM
- IC50 (NCI-H1395): > 2560 nM
- IC50 (NCI-H1650): > 2560 nM
- IC50 (NCI-H226): > 2560 nM
- IC50 (NCI-H69): > 2560 nM
- IC50 (NCI-H720): > 2560 nM
- IC50 (NCI-H747): > 2560 nM
- IC50 (NCI-H82): > 2560 nM
- IC50 (NEC8): > 2560 nM
- IC50 (RH-1): > 2560 nM
- IC50 (RKO): > 2560 nM
- IC50 (SF-126): > 2560 nM
- IC50 (SF-539): > 2560 nM
- IC50 (SJSA-1): > 2560 nM
- IC50 (SK-LMS-1): > 2560 nM
- IC50 (SK-N-DZ): > 2560 nM
- IC50 (SNB-75): > 2560 nM
- IC50 (SNU-C2B): > 2560 nM
- IC50 (A101D): > 2560 nM
- IC50 (A388): > 2560 nM
- IC50 (ALL-PO): > 2560 nM
- IC50 (AM-38): > 2560 nM
- IC50 (BB30-HNC): > 2560 nM
- IC50 (Becker): > 2560 nM
- IC50 (TE-12): > 2560 nM
- IC50 (TE-8): > 2560 nM
- IC50 (TE-9): > 2560 nM
- IC50 (TGBC1TKB): > 2560 nM
- IC50 (TGBC24TKB): > 2560 nM
- IC50 (U-266): > 2560 nM
- IC50 (CAS-1): > 2560 nM
- IC50 (CGTH-W-1): > 2560 nM
- IC50 (COLO-320-HSR): > 2560 nM
- IC50 (COLO-668): > 2560 nM

Structure (SMILES): Fc1cc(-c2cc[nH]/c(=N/c3ccc(-n4cnc(N5CCOCC5)n4)cc3)n2)cc(N2CCOCC2)c1
- IC50 (COLO-800): 1990 nM
- IC50 (CTB-1): 1110 nM
- IC50 (CTV-1): 405 nM
- IC50 (DMS-114): > 5120 nM
- IC50 (DSH1): 709 nM
- IC50 (EM-2): 1150 nM
- IC50 (ES1): 685 nM
- IC50 (EOL1): 501 nM
- IC50 (GB-1): 328 nM
- IC50 (GR-ST): 647 nM
- IC50 (HC-1): 301 nM
- IC50 (HCC1187): 594 nM
- IC50 (HCC2218): 1090 nM
- IC50 (HD-MY-Z): 1140 nM
- IC50 (HDLM-2): 721 nM
- IC50 (HOP-62): 248 nM
- IC50 (KGN): 227 nM
- IC50 (KINGS-1): > 5120 nM
- IC50 (KNS-42): 1090 nM
- IC50 (KNS-81-FD): 4950 nM
- IC50 (KY821): > 5120 nM
- IC50 (L-428): 649 nM
- IC50 (LAMA-84): 2950 nM
- IC50 (LB1047-RCC): 402 nM
- IC50 (LB2241-RCC): 733 nM
- IC50 (LS-1034): 1920 nM
- IC50 (MC116): 411 nM
- IC50 (MFM-223): > 5120 nM
- IC50 (MSTO-211H): > 5120 nM
- IC50 (Mo): 1650 nM
- IC50 (NB10): 1300 nM
- IC50 (NB13): 4910 nM
- IC50 (NCI-H1355): 875 nM
- IC50 (NCI-H1395): > 5120 nM
- IC50 (NCI-H1650): 624 nM
- IC50 (NCI-H226): 1430 nM
- IC50 (NCI-H69): 1180 nM
- IC50 (NCI-H720): > 5120 nM
- IC50 (NCI-H747): 1050 nM
- IC50 (NCI-H82): > 5120 nM
- IC50 (NEC8): 1010 nM
- IC50 (RH-1): 919 nM
- IC50 (RKO): 117 nM
- IC50 (SF-126): 3160 nM
- IC50 (SF-539): 673 nM
- IC50 (SJSA-1): 251 nM
- IC50 (SK-LMS-1): 453 nM
- IC50 (SK-N-DZ): 1860 nM
- IC50 (SNB-75): 291 nM
- IC50 (SNU-C2B): 637 nM
- IC50 (A101D): 245 nM
- IC50 (A388): 1940 nM
- IC50 (ALL-PO): 671 nM
- IC50 (AM-38): 1110 nM
- IC50 (BB30-HNC): 122 nM
- IC50 (Becker): 1060 nM
- IC50 (TE-12): 1210 nM
- IC50 (TE-8): 831 nM
- IC50 (TE-9): 69.2 nM
- IC50 (TGBC1TKB): 1880 nM
- IC50 (TGBC24TKB): 1040 nM
- IC50 (U-266): 882 nM
- IC50 (CAS-1): 2230 nM
- IC50 (CGTH-W-1): 82.5 nM
- IC50 (COLO-320-HSR): 518 nM
- IC50 (COLO-668): 376 nM
